Test results: patent publication US9237750B2, “Ornidazole and related compounds for use as herbicides” (RAMOT AT TEL-AVIV UNIVERSITY LTD., priority 2012, dated 2016)

Experiments:
Anabaena PCC7120 [1] = assay: Net O2 exchange (photosynthesis and respiration), O2 electrode; type: cell-based, Anabaena PCC7120 (Cyanobacteria)
Description: The cyanobacterium Anabaena PCC7120 was grown in BG-11 medium as was previously described (Marcus Y, et al., 2005. J Bacteriol 187, 4222-4228). The green eukaryotic alga Dunaliella salina was grown on a medium described by Ben-Amotz and Avron (Ben-Amotz A and Avron M 1983. Plant Physiol 72, 593-597), under 20 μmol photons m^−2 sec^−1 at 30° C. The aquatic plant Lemna was collected from an open pond at the Botanical garden of Tel Aviv University. Seedlings of Avena sterilis were grown in pots in a greenhouse. The marine diatom Phaeodactylum tricornutum was grown as described in Haimovich-Dayan et al. (Haimovich-Dayan M. et al. 2012. New Phytol 195:177-185).
The rate of net O2 exchange was determined using a Clark-type O2 electrode (Rank Brothers Ltd, UK). Fluorescent measurements (quantum yield, photochemical and non photochemical quenching) were determined using a modulated fluorometer (PAM, Walz, Germany) as described by Schreiber et al. (Schreiber U et al., 1986. fluorometer. Photosynth Res 10, 51-62) and Snir et al. (Snir A, et al., 2006. Photosynth Res 90, 233-242).
The algae Anabaena PCC7120 (Cyanobacteria), Dunaliella salina (Chlorophyta) and Phaeodactylum tricornutum (Diatoms) were each grown in its suitable medium as described hereinabove towards the mid logarithmic phase. 1 mM Ornidazole was then added to the medium for 5 min, and respiration and photosynthesis were measured for at least 10 min.
The effect of Ornidazole on the rate of photosynthesis of Anabaena was also determined. The algae were grown under various light intensities and saturating inorganic carbon (Ci) concentration, or under various Ci concentrations and saturating irradiance.

Avena sterilis = assay: Photosynthetic quantum yield of immersed leaf blades (PAM fluorimeter); type: in vivo; conditions: 1 mM Ornidazole in water, 3.5 hours
Description: Leaves of Avena seedlings grown in a pot (still attached to the stem) were immersed in 1 mM Ornidazole for the indicated times. The photosynthetic quantum yield under various light intensities was determined with a PAM fluorimeter. The rate of net O2 exchange was determined using a Clark-type O2 electrode (Rank Brothers Ltd, UK). Fluorescent measurements (quantum yield, photochemical and non photochemical quenching) were determined using a modulated fluorometer (PAM, Walz, Germany) as described by Schreiber et al. (Schreiber U et al., 1986. fluorometer. Photosynth Res 10, 51-62) and Snir et al. (Snir A, et al., 2006. Photosynth Res 90, 233-242). Similar results were obtained by immersion of leaf blades of the weed Avena sterilis in 1 mM Ornidazole in water. After 3.5 hours of incubation the quantum yield of photosynthesis decreased by 50% under limiting light intensity and by 85% under saturating light intensity (FIG. 4).

[2] = molecular target: T1, Triose phosphate isomerase (Nostoc sp., UniProt Q8YP17); assay: Enzyme activity in lysed Anabaena spheroplasts treated with 0 to 2 mM Ornidazole; type: cell-based, Anabaena PCC7120; parameters: endogenous in cells; host or cells: Anabaena PCC7120 spheroplasts, lysed after treatment; conditions: 30° C.
T1 sequence (Q8YP17 1-241): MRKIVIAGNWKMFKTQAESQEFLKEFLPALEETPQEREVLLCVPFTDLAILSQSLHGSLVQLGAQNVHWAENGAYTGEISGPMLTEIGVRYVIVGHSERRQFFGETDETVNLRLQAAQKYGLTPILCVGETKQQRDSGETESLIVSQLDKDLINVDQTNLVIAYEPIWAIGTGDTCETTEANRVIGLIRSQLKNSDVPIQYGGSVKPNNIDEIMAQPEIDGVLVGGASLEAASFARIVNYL
Description: Filaments of Anabaena PCC7120 were incubated in a medium containing: 0.5 M sucrose, 10 mM MgCl2, 5 mM Potassium Phosphate, 10 mM MES buffer pH 6.9, 1% (weight/volume) BSA and 1 mg/ml Lysozyme for 30 to 60 min. at 30° C. The spheroplasts yield was monitored by lysis in hypotonic solution. The spheroplasts were spun down and resuspended in a medium containing 0.4 M Mannitol, 10 mM MgCl2, 5 mM Potassium Phosphate and 20 mM Hepes buffer pH 8.0.
To further examine the effect of Ornidazole on these enzymes, the rate of photosynthesis of Anabaena spheroplasts, incubated in a spheroplast medium under saturating light intensity and CO2 concentrations in the presence of 0 to 2 mM Ornidazole at 30° C. was determined, using an O2 electrode. GAPDH and triose-phosphate isomerase activities were determined spectrophotometrically in the spheroplasts upon lysis (200 to 300 μg chlorophyll) using a reaction medium as described in the Materials and Methods section hereinabove.
A clear correlation was found between the reduced activity of triose phosphate isomerase and the declined rate of photosynthesis.

Anabaena PCC7120 [3] = assay: Biodegradation in BG-11 medium in the presence of Anabaena cells (LC-MS); conditions: 0.1 mM, in the presence of cyanobacteria
Description: (§1) Ornidazole (molecular mass 220 and 222 due to two isotopes of chlorine) or degradation products were sought by LC-MS. The chromatograms of samples from the first and fourth days are shown in FIG. 7B and FIG. 7C, respectively. The retention time and molecular mass of the isolated molecules are designated.
(§2) The concentrations of Ornidazole and its degradation product in the medium were determined during the growth of the cyanobacterium Anabaena PCC7120 and in media lacking cyanobacteria in the dark or under illumination. Ornidazole at 0.1 mM concentration was added to three growth tubes containing BG-11 medium: one growth tube was kept in the dark, the second under light conditions of 60 μmol photons m^−2 sec^−1 and the third tube, to which Anabaena cells were added, was also kept under similar light conditions. Samples from each tube were taken every day, separated on a C18 reverse phase HPLC column, and Ornidazole (molecular mass 220 and 222 due to two isotopes of chlorine) or degradation products were sought by LC-MS. A degradation product of molecular mass 184, identified as C7H9N3O3, was found in all three tubes.

[4] = molecular target: triose phosphate isomerase (Homo sapiens, UniProt P60174); conditions: glycolytic triose phosphate isomerase; cited from earlier work
[5] = Stability in BG-11 medium lacking cells (LC-MS); type: physicochemical; conditions: 0.1 mM, dark or light, four days
Description: as §1, §2

[6] = Anabaena PCC7120, 1 mM Ornidazole added for 5 min

triose phosphate isomerase, sequence (P60174 whole entry, species assumed): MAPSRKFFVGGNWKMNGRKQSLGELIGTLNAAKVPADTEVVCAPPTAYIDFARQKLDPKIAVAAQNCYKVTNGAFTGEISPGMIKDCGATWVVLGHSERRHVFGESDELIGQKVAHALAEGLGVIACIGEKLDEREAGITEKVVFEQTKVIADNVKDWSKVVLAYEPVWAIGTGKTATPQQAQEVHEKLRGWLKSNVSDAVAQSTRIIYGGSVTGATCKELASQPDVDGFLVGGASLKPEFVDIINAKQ

Question: With `Cc1ncc([N+](=O)[O-])n1CC(O)CCl` (stereo not shown) [Ornidazole, 1-chloro-3-(2-methyl-5-nitro-1H-imidazol-1-yl)propan-2-ol] as the compound, how does the Photosynthesis (Anabaena PCC7120 [1]; [6]) read?
Answer: −3.7 μmol O2 mg^−1 chl h^−1

Question: What about the Respiration (Anabaena PCC7120 [1]; [6]) of the same compound?
Answer: −26.5 μmol O2 mg^−1 chl h^−1

Question: What about the inhibition at 1000 µM (Anabaena PCC7120 [1]; Anabaena, 1 mM, read-out: inhibition of respiration rate) of the same compound?
Answer: 30 to 35%

Question: What about the effect on photosynthesis (Anabaena PCC7120 [1]; Anabaena, higher concentrations (than 1 mM) or longer incubation time) of the same compound?
Answer: abolished photosynthesis

Question: What about the “effect on photosynthetic rate” value (Anabaena PCC7120 [1]; limiting irradiance) of the same compound?
Answer: inhibited the photosynthetic rate to a lesser extent

Question: And the “effect on photosynthetic rate” value (Anabaena PCC7120 [1]; saturating irradiance at any Ci concentration)?
Answer: concentration-dependent decrease in the photosynthetic rate

Question: What about the “decrease of quantum yield of photosynthesis” value (Avena sterilis; limiting light intensity) of the same compound?
Answer: 50%

Question: What about the “decrease of quantum yield of photosynthesis” value (Avena sterilis; saturating light intensity) of the same compound?
Answer: 85%

Question: And the “inhibition of triose phosphate isomerase compared to GAPDH” value [2]?
Answer: inhibited at lower concentrations of Ornidazole and in a concentration-dependent manner

Question: And the “Ornidazole remaining, of its initial concentration” value (Anabaena PCC7120 [3]; after four days of incubation)?
Answer: 10%

Question: What about the “Ornidazole detection in medium” value (Anabaena PCC7120 [3]; after seven days) of the same compound?
Answer: could no longer be detected

Question: And the “inhibition of enzyme activity” value [4]?
Answer: inhibits the activity

Question: What about the “Ornidazole concentration in medium” value [5] of the same compound?
Answer: remained stable
